Activity calls are given as the source filed them. The calls are words filed in the database; no cut-off is given here.
Key:
[1] = Selectivity index, ratio of IC50 for cytotoxicity against HEK293 cells to IC50 for anti-malarial activity against chloroquine-sensitive Plasmodium falciparum NF54 infected in erythrocytes; type: toxicity, cell-based; details: human; read-out: Ratio IC50
Plasmodium falciparum = assay: Antimalarial activity against chloroquine-sensitive Plasmodium falciparum NF54 infected in erythrocytes measured after 48 hrs by Malstat/nitroblue tetrazolium/phenazine ethosulphate reagent based LDH assay; type: functional, cell-based; details: NF54, 48 h
[2] = Antioxidant activity assessed as inhibition of ferrous chloride-induced lipid peroxidation at 50 uM preincubated for 24 hrs followed by ferrous chloride addition relative to control; type: functional
Anopheles arabiensis [3] = assay: Larvicidal activity against Anopheles arabiensis KGB at 0.5 uM measured after 24 hrs relative to control; type: functional
HEK293 = assay: Cytotoxicity against HEK293 cells measured after 48 hrs by MTT assay; type: cell-based; details: Homo sapiens, HEK293, 48 h
Entamoeba histolytica = assay: Anti-amoebic activity against trophozoites of Entamoeba histolytica HM-1:IMSS gassed with nitrogen for 10 mins measured after 72 hrs by eosin staining based micro dilution method; type: functional
Anopheles arabiensis [4] = assay: Larvicidal activity against Anopheles arabiensis KGB measured after 24 hrs; type: functional; details: read-out: LD50 (the source's name)

Structure (SMILES)	selectivity ratio [1]	IC50 (Plasmodium falciparum)	inhibition [2]	Activity (Anopheles arabiensis [3])	IC50 (HEK293)	IC50 (Entamoeba histolytica)	LC50 (Anopheles arabiensis [4])
O=C([C@H]1CCCN1S(=O)(=O)c1ccccc1)N1CCN(c2ccnc3cc(Cl)ccc23)CC1	12	5.33 µM	< 1%	inactive	64.1 µM	1.26 µM	–
C=C[C@H]1CN2CC[C@H]1C[C@H]2[C@H](O)c1ccnc2ccc(OC)cc12 [QUININE]	1490	0.18 µM	–	–	276 µM	–	–
COc1ccc(S(=O)(=O)N2CCC[C@@H]2C(=O)N2CCN(c3ccnc4cc(Cl)ccc34)CC2)cc1	14.3	4.02 µM	< 1%	inactive	57.7 µM	5.73 µM	–
O=C([C@H]1CCCN1S(=O)(=O)c1ccc(Cl)cc1)N1CCN(c2ccnc3cc(Cl)ccc23)CC1	7.27	6.33 µM	< 1%	inactive	46 µM	0.31 µM	–
Cc1ccc(S(=O)(=O)N2CCC[C@@H]2C(=O)N2CCN(c3ccnc4cc(Cl)ccc34)CC2)cc1	57.1	1.42 µM	< 1%	inactive	81.2 µM	0.34 µM	–
O=C(CN1CCN(c2ccnc3cc(Cl)ccc23)CC1)NC1CCCCC1	–	–	–	–	–	0.86 µM	–
CC[C@@]1(O)C(=O)OCc2c1cc1n(c2=O)Cc2cc3ccccc3nc2-1 [CAMPTOTHECIN]	–	–	–	–	0.01 µM	–	–
O=C([C@H]1CCCN1S(=O)(=O)c1ccccc1[N+](=O)[O-])N1CCN(c2ccnc3cc(Cl)ccc23)CC1	14.2	4.08 µM	< 1%	inactive	57.7 µM	2.08 µM	–
O=C([C@H]1CCCN1S(=O)(=O)c1ccc2ccccc2c1)N1CCN(c2ccnc3cc(Cl)ccc23)CC1	7.06	3.45 µM	< 1%	inactive	24.4 µM	0.34 µM	–
CCCS(=O)(=O)N1CCC[C@@H]1C(=O)N1CCN(c2ccnc3cc(Cl)ccc23)CC1	–	–	< 1%	inactive	–	6.91 µM	–
O=C(CN1CCN(c2ccnc3cc(Cl)ccc23)CC1)Nc1ccc(F)cc1	–	–	–	–	–	0.41 µM	–
O=C([C@H]1CCCN1S(=O)(=O)c1cc(Cl)ccc1Cl)N1CCN(c2ccnc3cc(Cl)ccc23)CC1	9.02	4.21 µM	< 1%	inactive	38 µM	8.89 µM	–
CC(C)(C)c1ccc(S(=O)(=O)N2CCC[C@@H]2C(=O)N2CCN(c3ccnc4cc(Cl)ccc34)CC2)cc1	16.5	3.21 µM	< 1%	inactive	53.1 µM	0.77 µM	–
Cc1cc(C)c(S(=O)(=O)N2CCC[C@@H]2C(=O)N2CCN(c3ccnc4cc(Cl)ccc34)CC2)c(C)c1	0.75	19.6 µM	< 1%	inactive	14.7 µM	0.14 µM	–
Cc1c(C)c2c(c(C)c1O)CCC(C)(C(=O)O)O2 (stereo unspecified)	–	–	74%	–	–	–	–
Clc1ccc(C(c2ccc(Cl)cc2)C(Cl)(Cl)Cl)cc1 [CHLOROPHENOTHANE]	–	–	–	100%	–	–	0.5 µM
